The target in test [1] is T1, Cereblon (CRBN) protein (Homo sapiens, UniProt Q96SW2).
T1 construct: purchased Eurofins (E3scan service); host or cells: HEK-293
The experiment in a line: CRBN binding affinity, E3scan (Eurofins) competition binding with qPCR read-out. The conditions noted are these: lower % Ctrl = stronger binding, DMSO = 100 % Ctrl, lenalidomide = 0 % Ctrl. As for the experimental part: Specifically, CRBN was produced using a HEK-293 cell line and labeled with DNA for qPCR detection. Streptavidin-coated magnetic beads were treated with a biotinylated small-molecule ligand at room temperature for 30 minutes to generate an affinity resin for E3scan analysis. The liganded beads were blocked with excess biotin and washed with a blocking buffer (SeaBlock (Pierce), 1 % BSA, 0.05 % Tween 20, 1 mM DTT) to remove unbound ligands and prevent non-specific binding. […] The test compound was prepared as a 100× stock in 100 % DMSO and diluted directly into the assay solution. All reactions were performed in a polypropylene 384-well plate with a final reaction volume of 0.02 mL. […] The CRBN concentration in the eluate was measured by qPCR. […] A lower '% Ctrl' indicates a stronger binding affinity. […] ((test compound signal−positive control signal)/(negative control signal−positive control signal)) × 100 [formula]
(Real-time PCR tracks product formation cycle by cycle.)

Test [2] has as its system T-cell leukemia cell line Jurkat. Kind of test: Cell viability assay (Cell Counting Kit-8), Jurkat. The test is classed as cell-based. The settings on record: Homo sapiens, 72 hours, CCK-8, absorbance 450 nm. How it is done: To evaluate the cytotoxicity of the compounds synthesized in the Preparation Examples against cancer cells, a cell viability assay following treatment with the synthesized compounds was performed using a T-cell leukemia cell line Jurkat (KCLB, Cat# 40152), a human acute monocytic leukemia cell line MV-4-11 (ATCC, Cat# CRL-9591), and a human multiple myeloma cell line MM.1S (ATCC, Cat# CRL-2974).
As a culture medium for the cell lines, an RPMI medium containing 10 % heat-inactivated FBS and 1 % penicillin/streptomycin (P/S) antibiotics was used. The culture medium was stored refrigerated and warmed in a 37 °C water bath before use. Each cell line was used for the test after a stabilization period of at least 2 weeks after thawing, and cell culture was performed based on information provided by the cell line manufacturer regarding the thawing and subculture conditions.
The Jurkat, MV-4-11, or MM.1S cell line was seeded in a 96-well plate at a density of 1 × 10^4 cells/well and incubated in a 37 °C CO2 incubator overnight. After incubation, a prepared test compound was applied to each cell line, and the cells were incubated in a 37 °C CO2 incubator for 72 hours. After 72 hours of incubation, a Cell Counting Kit-8 (Dojindo, Cat# CK04-20) reagent was added, and the cells were incubated in a 37 °C CO2 incubator. Then, the absorbance was measured at 450 nm using a SpectraMax M3 Microplate Reader (N=2, duplicate measurement). The evaluation concentrations for evaluating the cytotoxicity of the compounds were 10 points: 100 µM, 20 µM, 4 µM, 0.8 µM, 0.16 µM, 0.032 µM, 0.0064 µM, 0.00128 µM, 0.000256 µM, and 0 µM, and the test was performed at 2 wells/concentration point (n=2). A GI50 was derived using a GraphPad Prism program.
In general terms: Formazan colour is commonly taken as a measure of viable cells.

Molecules are shown by their SMILES.

One may read the GI50 as the concentration that inhibits growth by half. Read a low GI50 as greater sensitivity of the cells.

In the case of `O=C1CCC(N2Cc3cc(C(=O)c4ccccc4)ccc3C2=O)C(=O)N1` (stereo not shown) [Compound 1, 3-(5-benzoyl-1-oxoisoindolin-2-yl)piperidine-2,6-dione], in test [1], the “CRBN binding affinity (% Ctrl @ 5µM)” value is recorded as “C (1 ≤ % Ctrl' < 10)”. In addition, the GI50 in test [2] lay within 100 to 1000 nM.

In the case of `O=C1CCC(N2Cc3nc(C(=O)c4ccccc4)ccc3C2=O)C(=O)N1` (stereo not shown) [Compound 5, 3-(2-benzoyl-5-oxo-5,7-dihydro-6H-pyrrolo[3.4-b]pyridin-6-yl)piperidine-2,6-dione], in test [1], the “CRBN binding affinity (% Ctrl @ 5µM)” value is reported as “C (1 ≤ % Ctrl' < 10)”.

`O=C1CCC(N2Cc3cc(C(=O)n4ncc5ccccc54)ccc3C2=O)C(=O)N1` (stereo not shown) [Compound 6, 3-(5-(1H-indazole-1-carbonyl)-1-oxoisoindolin-2-yl)piperidine-2,6-dione]: in test [1], the “CRBN binding affinity (% Ctrl @ 5µM)” value was “A (0 ≤ '% Ctrl' < 0.1)”.

Take `O=C1CCC(N2Cc3cc(C(=O)N4CCCC4)ccc3C2=O)C(=O)N1` (stereo not shown) [Compound 7, 3-(1-oxo-5-(pyrrolidine-1-carbonyl)isoindolin-2-yl)piperidine-2,6-dione]: the “CRBN binding affinity (% Ctrl @ 5µM)” value in test [1] is listed as “A (0 ≤ '% Ctrl' < 0.1)”.

As to `O=C1CCC(N2C(=O)c3ccc(C(=O)c4cc5ccccc5[nH]4)cc3C2=O)C(=O)N1` (stereo not shown) [Compound 10, 2-(2,6-dioxopiperidin-3-yl)-5-(1H-indole-2-carbonyl)isoindoline-1,3-dione], the “CRBN binding affinity (% Ctrl @ 5µM)” value in test [1] is recorded as “C (1 ≤ % Ctrl' < 10)”. In addition, in test [2], the GI50 lay in the range of 1000 to 10000 nM.

Regarding `O=C1CCC(N2Cc3cc(C(=O)C4CCN(Cc5ccccc5)CC4)ccc3C2=O)C(=O)N1` (stereo not shown) [Compound 11, 3-(5-(1-benzylpiperidine-4-carbonyl)-1-ox.oisoindolin-2-yl)piperidine-2,6-dione], in test [1], the “CRBN binding affinity (% Ctrl @ 5µM)” value is listed as “A (0 ≤ '% Ctrl' < 0.1)”.

For `O=C1CCC(N2Cc3cc(C(=O)c4ccccn4)ccc3C2=O)C(=O)N1` (stereo not shown) [Compound 12, 3-(1-oxo-5-picolinoylisoindelin-2-yi)piperidine-2,6-dione], the “CRBN binding affinity (% Ctrl @ 5µM)” value in test [1] is “A (0 ≤ '% Ctrl' < 0.1)”.

Regarding `O=C1CCC(N2Cc3cc(C(=O)c4cccc(Nc5ccccc5)c4)ccc3C2=O)C(=O)N1` (stereo not shown) [Compound 16, 3-(1-oxo-5-(3-(phenylamino)benzoyl)isoindolin-2-yl)piperidine-2,6-dione], in test [1], the “CRBN binding affinity (% Ctrl @ 5µM)” value was “A (0 ≤ '% Ctrl' < 0.1)”. In test [2], this compound gave a GI50 of 1000 to 10000 nM.

Take `O=C1CCC(N2Cc3cc(C(=O)c4c[nH]c5ccc(-c6ccccc6)cc45)ccc3C2=O)C(=O)N1` (stereo not shown) [Compound 24, 3-(1-oxo-5-(5-phenyl-1H-indole-3-carbonyl)isoindolin-2-yl)piperidine-2,6-dione]: in test [1], the “CRBN binding affinity (% Ctrl @ 5µM)” value is reported as “D (10 ≤ '% Ctrl' < 35)”.

On to `O=C1CCC(N2Cc3cc(C(=O)c4cn(-c5ccccc5)c5ccc(-c6ccccc6)cc45)ccc3C2=O)C(=O)N1` (stereo not shown) [Compound 25, 3-(5-(1,5-diphenyl-1H-indole-3-carbonyl)-1-oxoisoindolin-2-yl)piperidine-2,6-dione], for which the “CRBN binding affinity (% Ctrl @ 5µM)” value in test [1] is listed as “D (10 ≤ '% Ctrl' < 35)”.

In the case of `O=C1CCC(N2Cc3cc(C(=O)c4cccc(-c5ccccc5)c4)ccc3C2=O)C(=O)N1` (stereo not shown) [Compound 26, 3-(5-([1,1'-biphenyl]-3-carbonyl)-1-oxoisoindolin-2-yl)piperidine-2,6-dione], the “CRBN binding affinity (% Ctrl @ 5µM)” value in test [1] is reported as “A (0 ≤ '% Ctrl' < 0.1)”. The compound also registered a GI50 in test [2] of 1000 to 10000 nM.

For `O=C1CCC(N2Cc3cc(C(=O)c4ccc(-c5ccccc5)[nH]4)ccc3C2=O)C(=O)N1` (stereo not shown) [Compound 28, 3-(1-oxo-5-(5-phenyl-1H-pyrrole-2-carbonyl)isoindolin-2-yl)piperidine-2,6-dione], the “CRBN binding affinity (% Ctrl @ 5µM)” value in test [1] was “C (1 ≤ % Ctrl' < 10)”. In test [2], this compound came in with a GI50 of 100 to 1000 nM.

Take `O=C1CCC(N2Cc3cc(C(=O)c4cc(-c5ccccc5)cs4)ccc3C2=O)C(=O)N1` (stereo not shown) [Compound 30, 3-(1-oxo-5-(4-phenylthiophene-2-carbonyl)isoindolin-2-yl)piperidine-2,6-dione]: in test [1], the “CRBN binding affinity (% Ctrl @ 5µM)” value was “A (0 ≤ '% Ctrl' < 0.1)”. In addition, the GI50 in test [2] was in the range of 100 to 1000 nM.
